Results from patent publication US20150265670A1, “AGENT FOR PREVENTING OR IMPROVING DECLINE IN BRAIN FUNCTION” (KYOWA HAKKO BIO CO., LTD., priority 2012, published 2015).

Key:
[1] = system: bilateral common carotid arteries occlusion C57BL/6J mice; assay: Y-maze test; type: in vivo; conditions: single agent, after 7 days administration; for spontaneous alternation behavior rate (Alternation), memory behavior: high dose 100 mg/kg oral; for spontaneous alternation behavior rate (Alternation): low dose 40 mg/kg oral, compared to distilled water group (Group 2)
Method: (§1) Experimental Example: 10-week-old male C57BL/6J mice (CLEA Japan, Inc. approximately 25 g of average body weight per mouse) were preliminarily acclimated for 1 week, and provided for experiments. Citrulline and glutathione were obtained from KYOWA HAKKO BIO CO., LTD.
(§2) C57BL/6J mice were divided into a sham-operation group (Group 1) and a bilateral common carotid arteries occlusion group, which was performed under halothane anesthesia for 20 minutes. One day after reperfusion, the bilateral common carotid arteries occlusion group was further divided into a distilled water-treated group (Group 2), a low-dose citrulline-treated group (40 mg/kg: Group 3), a low-dose glutathione-treated group (40 mg/kg: Group 4), a high-dose citrulline-treated group (100 mg/kg: Group 5), a high-dose glutathione-treated group (100 mg/kg: Group 6), and a combination treatment group of a low dose of citrulline and a low dose of glutathione (each 40 mg/kg: Group 7). Each sample was orally administered for 12 days. One week after starting administration, learning memory-improving effects were examined by a Y-maze test, a passive avoidance test, and a novel object recognition test. After evaluating learning memory functions, the hippocampus was removed and viability of hippocampal nerve cells was evaluated.
In the Y-maze test, a Y-maze apparatus with three arms (50×16×32 cm) was used. Mice were placed at any one arm of the Y-maze and were allowed to explore freely through the maze for 8 minutes. The sequence of arm entries was recorded. The number of entries into each arm was counted during the measurement time, which was defined as the total number of entries. Of them, the successive entry into the three different arms was examined, and this number was defined as the spontaneous alternation behavior number. The spontaneous alternation behavior number was divided by (the total number of arm entries minus two), and then multiplied by 100, which was defined as the spontaneous alternation behavior rate (Alternation) and used as an index for spontaneous alternation behavior.

[2] = system: bilateral common carotid arteries occlusion C57BL/6J mice; assay: Passive avoidance test; type: in vivo; conditions: single agent, after 7 days administration; for latency time spent in the light compartment, memory behavior: high dose 100 mg/kg oral; for latency time spent in the light compartment: low dose 40 mg/kg oral, compared to Group 2
Method: as §1, §2
The passive avoidance test was performed using a box consisting of dark (25×25×25 cm) and light compartments (14×10×25 cm) and being equipped with an electrical stimulation apparatus at the bottom of the dark compartment. During training, as soon as the mouse entered the dark compartment from the light compartment, the door was closed, and an electrical stimulation (0.3 mA, for 2 seconds) was delivered. Twenty four hours after training, the mouse was placed again in the light compartment, and the latency time spent in the light compartment was recorded with a maximum latency of 300 seconds.

[3] = system: bilateral common carotid arteries occlusion C57BL/6J mice; assay: Novel object recognition test; type: in vivo; conditions: single agent, after 7 days administration; for frequency of exploring the novel object, memory behavior: high dose 100 mg/kg oral; for frequency of exploring the novel object: low dose 40 mg/kg oral
Method: as §1, §2
The novel object recognition test was performed after mice were individually acclimated to the open field apparatus (35×25×35 cm) for 2 days. During training, mice were allowed to explore freely for 10 minutes in an apparatus where two identical objects were symmetrically placed. After 1 hour, one object was replaced by a novel object, and mice were allowed to explore freely for 5 minutes. Object exploration was defined as standing on the objects, touching the object with the nose, or sniffing the object within 1 cm from the object. A ratio of the frequency of exploring the familiar or novel object over the total exploration frequency was calculated, and used as an index for visual recognition memory.

[4] = system: hippocampal nerve cells (CA1 pyramidal cell layer); assay: Evaluation of viability of hippocampal nerve cells; type: in vivo, mice; conditions: single agent, 12 days administration
Method: as §1, §2
Twelve days after bilateral occlusion of the common carotid arteries, mice were anesthetized with pentobarbital sodium, and perfused with ice-cold phosphate buffer (PBS, pH 7.4) until the blood in the body was completely removed. Immediately, mice were perfused with a fixative solution containing 4% paraformaldehyde. The brain tissues were fixed at 4° C. for 24 hours, and coronal sections having a thickness of 50 μm were prepared. Serial sections containing the hippocampus were stained with propidium iodide (PI, 5 μmol/L) dissolved in PBS and observed under a fluorescent microscope. Surviving and non-surviving nerve cells in the CA1 pyramidal cell layer of the hippocampus were counted at 1.4 to 1.8 mm posterior to bregma, and cells with PI-positive nuclei and typical morphological characteristics were defined as […]. The cell viability was calculated from a ratio to the average number of surviving nerve cells in Group 1.

[5] = low dose 40 mg/kg oral, compared to Group 2

| Compound | spontaneous alternation behavior rate (Alternation), memory behavior [1] | spontaneous alternation behavior rate (Alternation) [1] | latency time spent in the light compartment, memory behavior [2] | latency time spent in the light compartment [2] | frequency of exploring the novel object, memory behavior [3] | frequency of exploring the novel object [3] | viability of hippocampal nerve cells ([4]; high dose 100 mg/kg oral) | viability of hippocampal nerve cells [4, 5] |
| --- | --- | --- | --- | --- | --- | --- | --- | --- |
| N[C@@H](CCC(=O)N[C@@H](CS)C(=O)NCC(=O)O)C(=O)O [glutathione] | remarkably improved effect of memory behavior | cannot be improved | remarkably improved effect of memory behavior | cannot be improved | remarkably improved effect of memory behavior | cannot be increased | nerve cell-protecting effect | cannot be improved |
| NC(=O)NCCC[C@H](N)C(=O)O [citrulline] | remarkably improved effect of memory behavior | cannot be improved | remarkably improved effect of memory behavior | cannot be improved | remarkably improved effect of memory behavior | cannot be increased | nerve cell-protecting effect | cannot be improved |
